Reference: patent EP0075029A1, “AGENT FOR TREATING CHRONIC OBLITERATIVE LUNG DISEASE” (priority 1981, dated 1982)
Where a name gives a salt, the structure may show the parent alone.

Tests used:
[1] = test system: blood-perfused trachea in situ; assay: Blood-perfused trachea in situ (Himori and Taira): tracheal blood flow and inside pressure of the trachea; assay type: in vivo; conditions: intraarterial injection, dogs
Source text: The cervix of each dog was medisected to expose the pharynx and the upper part of the trachea.
The blood was introduced from the femoral artery by a peristaltic pump, and a part of the blood stream was by-passed to the downstream of the femoral artery through a Starling's air resistance tube provided parallel to the vascular bed of the trachea, thereby performing the perfusion under a constant pressure. The pressure of the perfusion was kept a little higher than the mean aortic blood pressure.
On the other hand, water was placed into the cuff of a tracheal tube equipped with a cuff, and the tube was inserted into the trachea. Then, the inside pressure of the cuff was measured by a pressure transducer to determine the inside pressure of the trachea as follows. Initially, water was placed in the cuff in such a manner that the static inside pressure of the trachea was about 40 cm H20. During the experiment, the tonus (the inside pressure of the trachea) of the tracheal smooth muscles in stationary phases was maintained by continuous intraarterial injections of 3 pg each of neostigmine into the vascular bed of the trachea at 30-minute intervals.
As an index of the selectivity of the dilating activity for trachea, the ratio of the increase of the blood flow in the trachea to the decrease of the inside pressure of the trachea was determined.

bronchi in situ = assay: animal or person; conditions: Canis lupus familiaris, iv, read-out: Percent inhibition
Protocol: The experiment was carried out in accordance with the Konzett-R6essler's method [Konzett, H. and Roessler, R: Arch. Exp. Pathol.
Six mongrel adult dogs were anesthetized with pentobarbital sodium (30 mg/kg). A tracheal cannula was inserted, and under artificial respiration, holes were incised in the right and left pleurae to equalize the pressure of the pleural cavity to the atmospheric pressure. The amount of air which overflowed by inspiration against a pressure of 10±1 cm H20 applied from the branch of the cannula was measured by a pneumotachograph.

Structure (SMILES) | effect on blood flow in the trachea and inside pressure of the trachea [1] | inhibition at 3 mg/kg (bronchi in situ) [%]
CC(C)NCC(O)c1ccc(O)c(O)c1 (single isomer, unassigned; (-)) [isoproterenol, (-) isoproterenol hydrochloride] | increased the blood flow in the trachea and reduced the inside pressure of the trachea in a dose dependent manner | 
Cn1c(=O)c2[nH]cnc2n(C)c1=O [Theophylline, theophylline] | increased the blood flow in the trachea and reduced the inside pressure of the trachea in a dose dependent manner | 56
